In patent US12590099B2, “Inhibitors of histone deacetylase useful for the treatment or prevention of HIV infection” (Merck Sharp & Dohme LLC, priority 2018, dated 2026):
Where two headings read alike, the source gives them in different places.

How the values were obtained:
Format in all cases: biochemical
[1] = target: T1, HDAC6 (Homo sapiens, UniProt Q9UBN7); test: Human HDAC enzyme inhibitor Fluor-de-Lys assay, HDAC6
T1 sequence (Q9UBN7 1-1215): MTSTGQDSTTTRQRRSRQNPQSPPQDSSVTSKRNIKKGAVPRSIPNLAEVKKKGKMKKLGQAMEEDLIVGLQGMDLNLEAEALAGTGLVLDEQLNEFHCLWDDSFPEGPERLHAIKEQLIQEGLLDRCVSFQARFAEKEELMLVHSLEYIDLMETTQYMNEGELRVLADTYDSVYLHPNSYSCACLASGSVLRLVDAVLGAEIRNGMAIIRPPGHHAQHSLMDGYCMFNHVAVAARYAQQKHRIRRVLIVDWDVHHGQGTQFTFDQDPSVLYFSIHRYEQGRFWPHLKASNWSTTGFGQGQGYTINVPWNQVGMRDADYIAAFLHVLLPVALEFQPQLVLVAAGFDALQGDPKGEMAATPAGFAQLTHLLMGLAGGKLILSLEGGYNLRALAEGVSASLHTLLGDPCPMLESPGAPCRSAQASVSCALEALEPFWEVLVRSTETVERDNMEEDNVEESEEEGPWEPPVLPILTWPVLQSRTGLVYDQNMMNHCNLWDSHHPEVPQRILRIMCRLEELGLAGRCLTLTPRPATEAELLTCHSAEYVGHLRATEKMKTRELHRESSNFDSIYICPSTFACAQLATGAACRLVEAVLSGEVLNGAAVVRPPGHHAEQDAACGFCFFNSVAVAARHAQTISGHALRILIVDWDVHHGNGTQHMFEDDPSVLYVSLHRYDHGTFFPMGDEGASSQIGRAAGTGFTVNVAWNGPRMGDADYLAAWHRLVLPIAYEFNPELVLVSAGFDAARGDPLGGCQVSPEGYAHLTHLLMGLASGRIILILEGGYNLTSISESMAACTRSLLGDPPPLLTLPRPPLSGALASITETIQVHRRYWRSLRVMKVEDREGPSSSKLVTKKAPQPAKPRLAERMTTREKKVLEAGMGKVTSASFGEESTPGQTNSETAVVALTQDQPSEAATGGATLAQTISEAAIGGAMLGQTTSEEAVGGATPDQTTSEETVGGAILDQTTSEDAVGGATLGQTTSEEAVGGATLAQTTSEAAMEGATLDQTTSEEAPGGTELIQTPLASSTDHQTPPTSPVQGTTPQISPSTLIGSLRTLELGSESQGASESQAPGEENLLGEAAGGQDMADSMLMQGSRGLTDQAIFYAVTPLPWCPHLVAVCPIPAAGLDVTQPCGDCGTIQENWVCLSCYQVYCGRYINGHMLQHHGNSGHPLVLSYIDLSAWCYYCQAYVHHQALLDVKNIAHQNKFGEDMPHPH

[2] = target: T2, Recombinant human HDAC2 (Homo sapiens, UniProt Q92769); test: Human HDAC enzyme inhibitor Fluor-de-Lys assay, HDAC2
T2 construct: Full length human HDAC2-FLAG was expressed in baculovirus infected Sf9 cells; FLAG (C); made in house; host or cells: Sf9 (baculovirus)
Procedure, shortened: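 Fluor-de-Lys format at room temperature (23° C.): compounds titrated 10-point, 1:3, preincubated with HDAC before substrate addition. Developer with excess HDAC inhibitor ends the reaction, and trypsin-liberated AMC fluorescence is the read-out.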

[3] = target: T3, Recombinant human HDAC3/SMRT heterodimer (Homo sapiens, UniProt O15379); test: Human HDAC enzyme inhibitor Fluor-de-Lys assay, HDAC3/SMRT
T3 construct: FLAG (C); made in house

[4] = target: T4, Recombinant human HDAC8 (Homo sapiens, UniProt Q9BY41); test: Human HDAC enzyme inhibitor Fluor-de-Lys assay, HDAC8
T4 construct: purchased Enzo Life Sciences BML-SE145-0100
T4 sequence (Q9BY41 1-377): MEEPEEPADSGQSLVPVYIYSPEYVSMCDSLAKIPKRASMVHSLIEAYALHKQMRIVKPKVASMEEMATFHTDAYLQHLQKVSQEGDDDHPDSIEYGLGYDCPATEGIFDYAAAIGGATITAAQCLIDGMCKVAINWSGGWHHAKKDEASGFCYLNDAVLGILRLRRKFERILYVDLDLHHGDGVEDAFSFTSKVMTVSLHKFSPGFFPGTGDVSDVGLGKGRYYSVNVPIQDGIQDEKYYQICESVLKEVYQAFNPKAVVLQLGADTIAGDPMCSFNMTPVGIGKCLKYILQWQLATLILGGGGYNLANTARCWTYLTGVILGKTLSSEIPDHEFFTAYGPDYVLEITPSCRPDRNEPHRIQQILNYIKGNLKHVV

[5] = recombinant human HDAC2, Fluor-de-Lys assay
[6] = recombinant human HDAC3/SMRT, Fluor-de-Lys assay
[7] = recombinant human HDAC8, Fluor-de-Lys assay

T3 sequence (O15379 whole entry): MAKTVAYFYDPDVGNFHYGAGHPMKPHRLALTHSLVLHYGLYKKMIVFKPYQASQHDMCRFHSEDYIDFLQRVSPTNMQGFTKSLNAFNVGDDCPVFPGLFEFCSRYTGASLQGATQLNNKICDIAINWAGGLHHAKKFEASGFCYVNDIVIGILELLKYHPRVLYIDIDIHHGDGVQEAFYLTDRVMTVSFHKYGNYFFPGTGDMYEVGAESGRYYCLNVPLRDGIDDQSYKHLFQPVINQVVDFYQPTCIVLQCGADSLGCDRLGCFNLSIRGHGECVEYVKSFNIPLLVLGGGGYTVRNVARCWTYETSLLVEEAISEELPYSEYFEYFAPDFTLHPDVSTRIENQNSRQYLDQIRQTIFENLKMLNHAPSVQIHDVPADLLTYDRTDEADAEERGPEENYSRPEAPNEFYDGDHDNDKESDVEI
T3 sequence (Q9Y618 1-899 partner limits assumed): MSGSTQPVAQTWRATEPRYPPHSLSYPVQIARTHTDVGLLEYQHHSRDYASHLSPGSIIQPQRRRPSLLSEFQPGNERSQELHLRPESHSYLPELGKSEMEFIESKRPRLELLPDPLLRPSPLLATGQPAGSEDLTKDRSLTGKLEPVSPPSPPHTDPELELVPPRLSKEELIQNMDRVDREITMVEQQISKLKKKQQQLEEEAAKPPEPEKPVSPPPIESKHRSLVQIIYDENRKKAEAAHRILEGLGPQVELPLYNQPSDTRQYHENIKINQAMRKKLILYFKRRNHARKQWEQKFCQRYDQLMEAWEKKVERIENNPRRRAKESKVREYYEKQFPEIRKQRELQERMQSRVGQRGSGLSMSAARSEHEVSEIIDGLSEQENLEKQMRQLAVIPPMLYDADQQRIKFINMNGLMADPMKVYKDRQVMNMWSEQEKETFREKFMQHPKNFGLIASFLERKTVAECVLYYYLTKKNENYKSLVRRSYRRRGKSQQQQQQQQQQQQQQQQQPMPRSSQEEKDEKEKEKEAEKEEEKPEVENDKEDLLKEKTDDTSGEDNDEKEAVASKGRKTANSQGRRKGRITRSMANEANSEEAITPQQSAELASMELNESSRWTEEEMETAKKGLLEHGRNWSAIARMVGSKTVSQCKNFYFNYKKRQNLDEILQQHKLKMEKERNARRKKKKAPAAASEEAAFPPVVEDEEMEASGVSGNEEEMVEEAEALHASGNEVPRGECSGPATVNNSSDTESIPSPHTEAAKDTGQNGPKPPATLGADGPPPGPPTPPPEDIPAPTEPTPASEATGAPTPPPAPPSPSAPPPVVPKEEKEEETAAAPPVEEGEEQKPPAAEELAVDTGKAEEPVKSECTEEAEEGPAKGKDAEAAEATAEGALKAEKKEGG
T2 sequence (Q92769 whole entry): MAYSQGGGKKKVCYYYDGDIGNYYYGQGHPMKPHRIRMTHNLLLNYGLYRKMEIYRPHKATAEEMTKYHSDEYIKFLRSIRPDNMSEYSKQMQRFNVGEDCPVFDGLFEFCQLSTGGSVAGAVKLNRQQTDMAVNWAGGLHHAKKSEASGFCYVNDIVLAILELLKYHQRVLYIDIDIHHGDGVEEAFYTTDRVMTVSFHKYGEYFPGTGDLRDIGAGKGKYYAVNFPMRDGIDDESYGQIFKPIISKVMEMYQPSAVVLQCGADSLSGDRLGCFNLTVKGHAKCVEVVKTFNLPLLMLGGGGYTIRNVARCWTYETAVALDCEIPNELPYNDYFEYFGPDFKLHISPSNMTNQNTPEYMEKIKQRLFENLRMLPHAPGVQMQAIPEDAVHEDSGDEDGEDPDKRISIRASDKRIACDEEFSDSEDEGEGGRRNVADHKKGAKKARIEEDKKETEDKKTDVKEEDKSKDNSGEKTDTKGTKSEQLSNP

CCC(=O)CCCCC[C@H](NC(=O)C1(N)CC2(CN(C)C2)C1)c1ncc(-c2cc3ccccc3nc2OC)[nH]1 [Compound 276]
IC50 ([1]; HDAC6, Fluor-de-Lys assay): 1280 nM
IC50 [2, 5]: 9.1 nM
IC50 [3, 6]: 1.57 nM
IC50 [4, 7]: 5000 nM

CCC(=O)CCCCC[C@H](NC(=O)[C@H]1CC12CCN(C)CC2)c1ncc(-c2ccc3c(c2)c2ccccc2n3C)[nH]1 [Compound 265]
IC50 ([1]; HDAC6, Fluor-de-Lys assay): 630 nM
IC50 [2, 5]: 12.4 nM
IC50 [3, 6]: 3.86 nM
IC50 [4, 7]: 4600 nM

CCC(=O)CCCCC[C@H](NC(=O)[C@H]1CC12CCN(C)CC2)c1ncc(-c2ccc3nc(C)ccc3c2)o1 [Compound 80]
IC50 [1]: 1680 nM
IC50 [2]: 14.8 nM
IC50 [3]: 2.96 nM
IC50 [4]: > 45000 nM

CCC(=O)CCCCC[C@H](NC(=O)C1NC(=O)CC12CN(C)C2)c1ncc(-c2cc3ccccc3nc2OC)[nH]1 (some centres unmarked) [Compound 317]
IC50 ([1]; HDAC6, Fluor-de-Lys assay): 186 nM
IC50 [2, 5]: 5 nM
IC50 [3, 6]: 0.84 nM
IC50 [4, 7]: 4890 nM

CCC(=O)CCCCC[C@H](NC(=O)C1=NOC2(CCN(C)CC2)C1)c1ncc(-c2cc3cccnc3cc2OC)o1 [Compound 223]
IC50 ([1]; HDAC6, Fluor-de-Lys assay): 237 nM
IC50 [2, 5]: 9.7 nM
IC50 [3, 6]: 2.06 nM
IC50 [4, 7]: > 900 nM

CCC(=O)CCCCC[C@H](NC(=O)C1CC12CCN(CC)CC2)c1nc(-c2ccc(F)cc2)[nH]c1-c1cnc(OC)nc1 (some centres unmarked) [Compound 247]
IC50 ([1]; HDAC6, Fluor-de-Lys assay): > 45000 nM
IC50 [2, 5]: 214 nM
IC50 [3, 6]: 35.9 nM
IC50 [4, 7]: 21800 nM

CCC(=O)CCCCC[C@H](NC(=O)C1CC12CCNCC2)c1nnc(-c2cc3ccccc3nc2OC)o1 (some centres unmarked) [Compound 303]
IC50 ([1]; HDAC6, Fluor-de-Lys assay): 982 nM
IC50 [2, 5]: 40.5 nM
IC50 [3, 6]: 10.5 nM
IC50 [4, 7]: 29200 nM

CCC(=O)CCCCC[C@H](NC(=O)C1CC12CCN(CC)CC2)c1nc(-c2ccc(F)cc2)[nH]c1-c1ccn(C)c1 (some centres unmarked) [Compound 251]
IC50 ([1]; HDAC6, Fluor-de-Lys assay): 41700 nM
IC50 [2, 5]: 12.6 nM
IC50 [3, 6]: 1.82 nM
IC50 [4, 7]: 29400 nM

CCC(=O)CCCCC[C@H](NC(=O)[C@H]1CC12CCN(C)CC2)c1[nH]c(-c2ccc(F)cc2)nc1Cl [Compound 240]
IC50 ([1]; HDAC6, Fluor-de-Lys assay): 38400 nM
IC50 [2, 5]: 38.1 nM
IC50 [3, 6]: 2.95 nM
IC50 [4, 7]: 26700 nM

CCC(=O)CCCCCC(NC(=O)C1CCC2(CC1)OC(=O)c1cnccc12)c1nnc(-c2cc3ccccc3nc2OC)o1 (centres unmarked) [Compound 364]
IC50 ([1]; HDAC6, Fluor-de-Lys assay): 1990 nM
IC50 [2, 5]: 248 nM
IC50 [3, 6]: 21.8 nM
IC50 [4, 7]: 32100 nM

CCC(=O)CCCCCC(NC(=O)C1CC12CCN(CC)CC2)c1nc(-c2ccc(F)cc2)[nH]c1-c1ccnn1C (centres unmarked) [Compound 253]
IC50 ([1]; HDAC6, Fluor-de-Lys assay): > 45000 nM
IC50 [2, 5]: 111 nM
IC50 [3, 6]: 16.7 nM
IC50 [4, 7]: 26800 nM

CCC(=O)CCCCC[C@H](NC(=O)[C@H]1CC12CCN(CC)CC2)c1ncc(-c2ccc(-n3cccn3)cc2)o1 [Compound 95]
IC50 [1]: 1250 nM
IC50 [2]: 31.5 nM
IC50 [3]: 3.95 nM
IC50 [4]: 20500 nM

CCC(=O)CCCCC[C@H](NC(=O)C1CC12CCN(CC)CC2)c1nc(-c2ccc(F)cc2)[nH]c1-c1cn[nH]c1 (some centres unmarked) [Compound 249]
IC50 ([1]; HDAC6, Fluor-de-Lys assay): 19300 nM
IC50 [2, 5]: 88.3 nM
IC50 [3, 6]: 20.1 nM
IC50 [4, 7]: 31500 nM

CCC(=O)CCCCC[C@H](NC(=O)CC1CC2(C1)CN(C)C2)c1nnc(-c2cc3ccccc3nc2OC)o1 [Compound 308]
IC50 ([1]; HDAC6, Fluor-de-Lys assay): 1280 nM
IC50 [2, 5]: 97.7 nM
IC50 [3, 6]: 27.4 nM
IC50 [4, 7]: > 45000 nM
